# Activity calls are given as the source filed them.
# Assays:
# [1] = target: Cyclin-dependent kinase 9 (Homo sapiens, UniProt P50750); assay type: functional;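 also: value from the CDK9 entry of a kinome-spanning kinase panel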
# [2] = target: Glycogen synthase kinase-3 beta (Homo sapiens, UniProt P49841); assay type: functional;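 also: value comes from a broad kinome profiling panel, with GSK3B as the panel member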
# [3] = target: Dual specificity protein kinase CLK4 (Homo sapiens, UniProt Q9HAZ1); assay type: functional
# [4] = target: Proto-oncogene tyrosine-protein kinase receptor Ret (Homo sapiens, UniProt P07949); assay type: functional;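 also: measured within a kinome-wide profiling panel, RET as the panel member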
# Proto-oncogene tyrosine-protein kinase receptor Ret, sequence (P07949 whole entry): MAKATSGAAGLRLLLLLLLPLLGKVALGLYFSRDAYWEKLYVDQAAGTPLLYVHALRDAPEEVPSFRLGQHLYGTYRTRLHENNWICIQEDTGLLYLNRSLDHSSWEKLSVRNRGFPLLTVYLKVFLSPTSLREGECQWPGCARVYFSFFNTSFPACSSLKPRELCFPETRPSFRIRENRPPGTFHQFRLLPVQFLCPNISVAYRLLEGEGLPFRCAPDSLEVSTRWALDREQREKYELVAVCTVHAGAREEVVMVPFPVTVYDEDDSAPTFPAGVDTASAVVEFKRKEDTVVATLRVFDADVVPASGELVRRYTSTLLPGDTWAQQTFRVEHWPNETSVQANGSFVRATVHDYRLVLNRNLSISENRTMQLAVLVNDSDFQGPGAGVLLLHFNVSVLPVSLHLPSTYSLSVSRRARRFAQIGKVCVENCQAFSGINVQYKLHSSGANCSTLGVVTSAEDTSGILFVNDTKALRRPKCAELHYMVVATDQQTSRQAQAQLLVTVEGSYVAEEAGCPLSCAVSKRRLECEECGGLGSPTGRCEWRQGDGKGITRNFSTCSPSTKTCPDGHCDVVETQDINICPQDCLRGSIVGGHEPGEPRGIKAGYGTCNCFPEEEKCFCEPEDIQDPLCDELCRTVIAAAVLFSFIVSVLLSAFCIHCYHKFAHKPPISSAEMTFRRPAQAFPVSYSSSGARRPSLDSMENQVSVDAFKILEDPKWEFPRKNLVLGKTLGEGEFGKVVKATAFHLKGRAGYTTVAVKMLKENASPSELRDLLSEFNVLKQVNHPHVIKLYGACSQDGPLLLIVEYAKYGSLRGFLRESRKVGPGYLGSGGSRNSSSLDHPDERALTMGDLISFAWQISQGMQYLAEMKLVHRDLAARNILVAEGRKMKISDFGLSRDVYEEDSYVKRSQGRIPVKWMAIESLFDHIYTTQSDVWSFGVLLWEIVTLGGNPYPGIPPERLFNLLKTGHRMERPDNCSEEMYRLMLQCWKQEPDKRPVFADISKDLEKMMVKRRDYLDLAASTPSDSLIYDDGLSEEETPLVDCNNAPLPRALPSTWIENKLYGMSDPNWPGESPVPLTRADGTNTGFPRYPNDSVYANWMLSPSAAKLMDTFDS
# [5] = target: Macrophage-stimulating protein receptor (Homo sapiens, UniProt Q04912); assay: Navigating the Kinome. Panel member name: MST1R; assay type: functional
# [6] = target: Serine/threonine-protein kinase TBK1 (Homo sapiens, UniProt Q9UHD2); assay: Navigating the Kinome. Panel member name: TBK1; assay type: functional
# [7] = target: Serine/threonine-protein kinase D3 (Homo sapiens, UniProt O94806); assay type: functional;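 also: determined within a kinase panel screen, with PRKCN as the panel member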
# Serine/threonine-protein kinase D3, sequence (O94806 whole entry): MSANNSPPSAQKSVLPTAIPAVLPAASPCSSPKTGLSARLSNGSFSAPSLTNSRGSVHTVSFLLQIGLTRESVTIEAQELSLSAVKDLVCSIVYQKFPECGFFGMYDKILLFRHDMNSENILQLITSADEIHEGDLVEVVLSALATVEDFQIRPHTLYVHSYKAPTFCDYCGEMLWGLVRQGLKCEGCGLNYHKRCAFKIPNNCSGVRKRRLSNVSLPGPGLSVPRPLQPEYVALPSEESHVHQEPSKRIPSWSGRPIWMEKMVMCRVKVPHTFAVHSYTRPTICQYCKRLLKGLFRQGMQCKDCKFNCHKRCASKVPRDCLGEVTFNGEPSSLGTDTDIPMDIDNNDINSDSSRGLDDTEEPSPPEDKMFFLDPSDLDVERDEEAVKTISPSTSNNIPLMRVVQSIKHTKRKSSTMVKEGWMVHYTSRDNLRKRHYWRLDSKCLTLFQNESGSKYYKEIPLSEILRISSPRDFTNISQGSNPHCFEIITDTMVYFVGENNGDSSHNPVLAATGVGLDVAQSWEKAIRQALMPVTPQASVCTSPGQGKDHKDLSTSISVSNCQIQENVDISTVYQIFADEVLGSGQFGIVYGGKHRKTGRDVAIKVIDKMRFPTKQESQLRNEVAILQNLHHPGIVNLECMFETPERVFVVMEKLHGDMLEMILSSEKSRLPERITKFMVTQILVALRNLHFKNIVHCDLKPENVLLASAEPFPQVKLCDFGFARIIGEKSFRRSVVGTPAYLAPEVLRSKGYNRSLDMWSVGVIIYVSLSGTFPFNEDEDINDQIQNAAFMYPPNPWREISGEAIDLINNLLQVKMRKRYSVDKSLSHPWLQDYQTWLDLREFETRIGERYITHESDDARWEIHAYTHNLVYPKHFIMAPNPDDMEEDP
# [8] = target: Mitogen-activated protein kinase 8 (Homo sapiens, UniProt P45983); assay type: functional;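 also: value comes from one member of a kinome-wide kinase profiling panel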
# Mitogen-activated protein kinase 8, sequence (P45983 whole entry): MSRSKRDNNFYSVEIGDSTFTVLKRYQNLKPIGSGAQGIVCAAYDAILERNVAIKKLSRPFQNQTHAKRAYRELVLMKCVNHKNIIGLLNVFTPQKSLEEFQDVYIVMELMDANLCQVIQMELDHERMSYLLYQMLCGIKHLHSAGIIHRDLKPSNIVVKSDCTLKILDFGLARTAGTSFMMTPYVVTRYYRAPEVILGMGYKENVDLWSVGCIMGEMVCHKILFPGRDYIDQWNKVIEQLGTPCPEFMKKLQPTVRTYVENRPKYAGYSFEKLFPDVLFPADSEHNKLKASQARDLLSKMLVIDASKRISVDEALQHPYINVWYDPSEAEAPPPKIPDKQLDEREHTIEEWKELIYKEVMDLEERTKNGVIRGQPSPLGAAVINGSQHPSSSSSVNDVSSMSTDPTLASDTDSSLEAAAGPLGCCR
# [9] = target: Vascular endothelial growth factor receptor 1 (Homo sapiens, UniProt P17948); assay type: functional;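 also: measured within a kinome-wide profiling panel, FLT1 as the panel member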
# Vascular endothelial growth factor receptor 1, sequence (P17948 whole entry): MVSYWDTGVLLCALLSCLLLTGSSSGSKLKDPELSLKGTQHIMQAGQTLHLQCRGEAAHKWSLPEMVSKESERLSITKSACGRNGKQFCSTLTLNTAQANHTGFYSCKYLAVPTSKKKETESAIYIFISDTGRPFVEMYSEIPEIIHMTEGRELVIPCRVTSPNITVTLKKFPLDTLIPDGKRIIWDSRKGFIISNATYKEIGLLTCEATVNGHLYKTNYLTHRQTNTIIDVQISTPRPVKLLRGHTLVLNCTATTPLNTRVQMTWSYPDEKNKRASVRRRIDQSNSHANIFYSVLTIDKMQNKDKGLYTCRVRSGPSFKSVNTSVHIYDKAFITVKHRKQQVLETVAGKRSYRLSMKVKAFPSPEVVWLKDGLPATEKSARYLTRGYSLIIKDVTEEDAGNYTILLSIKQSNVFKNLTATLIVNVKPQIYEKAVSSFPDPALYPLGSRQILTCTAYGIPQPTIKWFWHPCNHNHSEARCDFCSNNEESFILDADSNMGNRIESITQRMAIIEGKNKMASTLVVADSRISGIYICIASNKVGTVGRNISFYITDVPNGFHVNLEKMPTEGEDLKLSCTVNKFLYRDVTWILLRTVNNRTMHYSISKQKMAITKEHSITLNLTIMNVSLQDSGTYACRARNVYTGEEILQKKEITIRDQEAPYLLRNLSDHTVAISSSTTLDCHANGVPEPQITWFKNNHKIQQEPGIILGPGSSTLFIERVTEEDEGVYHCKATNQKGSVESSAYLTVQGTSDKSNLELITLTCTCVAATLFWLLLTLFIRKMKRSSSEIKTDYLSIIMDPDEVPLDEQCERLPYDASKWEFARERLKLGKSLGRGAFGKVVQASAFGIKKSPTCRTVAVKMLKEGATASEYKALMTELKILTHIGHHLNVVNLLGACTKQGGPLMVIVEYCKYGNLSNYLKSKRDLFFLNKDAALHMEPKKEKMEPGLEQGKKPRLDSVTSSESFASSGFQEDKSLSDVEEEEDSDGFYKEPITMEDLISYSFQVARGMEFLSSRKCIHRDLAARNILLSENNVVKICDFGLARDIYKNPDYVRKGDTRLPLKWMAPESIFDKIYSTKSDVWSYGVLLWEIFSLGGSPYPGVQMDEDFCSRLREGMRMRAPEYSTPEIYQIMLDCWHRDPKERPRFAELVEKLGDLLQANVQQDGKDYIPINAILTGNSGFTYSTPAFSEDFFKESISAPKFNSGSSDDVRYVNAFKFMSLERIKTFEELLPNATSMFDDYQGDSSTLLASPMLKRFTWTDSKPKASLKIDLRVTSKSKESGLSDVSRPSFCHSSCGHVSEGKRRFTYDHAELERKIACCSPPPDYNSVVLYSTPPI
# [10] = target: Cyclin-dependent kinase 5 (Homo sapiens, UniProt Q00535); assay type: functional;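 also: CDK5 measured as one member of a kinase profiling panel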
# Cyclin-dependent kinase 5, sequence (Q00535 whole entry): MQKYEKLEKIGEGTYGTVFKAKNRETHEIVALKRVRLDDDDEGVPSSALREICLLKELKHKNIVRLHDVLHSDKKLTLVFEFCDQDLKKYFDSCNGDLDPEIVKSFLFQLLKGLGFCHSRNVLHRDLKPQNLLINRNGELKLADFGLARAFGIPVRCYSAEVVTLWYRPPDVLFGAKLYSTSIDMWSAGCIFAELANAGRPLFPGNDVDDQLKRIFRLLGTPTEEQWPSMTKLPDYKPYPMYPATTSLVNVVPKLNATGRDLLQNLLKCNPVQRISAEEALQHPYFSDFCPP
# [11] = target: Calcium/calmodulin-dependent protein kinase type II subunit alpha (Homo sapiens, UniProt Q9UQM7); assay: Navigating the Kinome. Panel member name: CAMK2A; assay type: functional
# [12] = target: Serine/threonine-protein kinase PAK 4 (Homo sapiens, UniProt O96013); assay type: functional;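 also: value obtained within a kinome profiling panel in which PAK4 was one of the panel members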
# Serine/threonine-protein kinase PAK 4, sequence (O96013 whole entry): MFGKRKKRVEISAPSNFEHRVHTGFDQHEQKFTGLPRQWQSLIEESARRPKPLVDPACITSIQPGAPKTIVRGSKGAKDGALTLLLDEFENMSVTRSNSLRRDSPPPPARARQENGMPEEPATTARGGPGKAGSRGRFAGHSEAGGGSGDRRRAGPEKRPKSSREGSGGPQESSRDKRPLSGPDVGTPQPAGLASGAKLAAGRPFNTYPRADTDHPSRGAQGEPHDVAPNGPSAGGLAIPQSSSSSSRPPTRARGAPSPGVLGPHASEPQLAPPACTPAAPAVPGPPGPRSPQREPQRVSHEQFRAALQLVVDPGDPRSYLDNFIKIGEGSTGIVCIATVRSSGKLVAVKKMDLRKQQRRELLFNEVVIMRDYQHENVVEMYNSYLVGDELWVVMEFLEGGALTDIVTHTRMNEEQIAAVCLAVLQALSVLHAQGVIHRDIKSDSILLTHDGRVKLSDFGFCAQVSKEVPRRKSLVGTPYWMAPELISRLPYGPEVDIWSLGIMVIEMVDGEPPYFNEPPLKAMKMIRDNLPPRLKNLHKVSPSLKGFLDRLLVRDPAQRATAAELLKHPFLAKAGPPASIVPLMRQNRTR
# Insulin-degrading enzyme = target: T1, Insulin-degrading enzyme (Homo sapiens, UniProt P14735); assay: recombinant IDE activation, cell-free – biochemical, fluorescence polarization, counter-screen for IDE activator project, dose response (AID 588681)
# T1 sequence (P14735 whole entry): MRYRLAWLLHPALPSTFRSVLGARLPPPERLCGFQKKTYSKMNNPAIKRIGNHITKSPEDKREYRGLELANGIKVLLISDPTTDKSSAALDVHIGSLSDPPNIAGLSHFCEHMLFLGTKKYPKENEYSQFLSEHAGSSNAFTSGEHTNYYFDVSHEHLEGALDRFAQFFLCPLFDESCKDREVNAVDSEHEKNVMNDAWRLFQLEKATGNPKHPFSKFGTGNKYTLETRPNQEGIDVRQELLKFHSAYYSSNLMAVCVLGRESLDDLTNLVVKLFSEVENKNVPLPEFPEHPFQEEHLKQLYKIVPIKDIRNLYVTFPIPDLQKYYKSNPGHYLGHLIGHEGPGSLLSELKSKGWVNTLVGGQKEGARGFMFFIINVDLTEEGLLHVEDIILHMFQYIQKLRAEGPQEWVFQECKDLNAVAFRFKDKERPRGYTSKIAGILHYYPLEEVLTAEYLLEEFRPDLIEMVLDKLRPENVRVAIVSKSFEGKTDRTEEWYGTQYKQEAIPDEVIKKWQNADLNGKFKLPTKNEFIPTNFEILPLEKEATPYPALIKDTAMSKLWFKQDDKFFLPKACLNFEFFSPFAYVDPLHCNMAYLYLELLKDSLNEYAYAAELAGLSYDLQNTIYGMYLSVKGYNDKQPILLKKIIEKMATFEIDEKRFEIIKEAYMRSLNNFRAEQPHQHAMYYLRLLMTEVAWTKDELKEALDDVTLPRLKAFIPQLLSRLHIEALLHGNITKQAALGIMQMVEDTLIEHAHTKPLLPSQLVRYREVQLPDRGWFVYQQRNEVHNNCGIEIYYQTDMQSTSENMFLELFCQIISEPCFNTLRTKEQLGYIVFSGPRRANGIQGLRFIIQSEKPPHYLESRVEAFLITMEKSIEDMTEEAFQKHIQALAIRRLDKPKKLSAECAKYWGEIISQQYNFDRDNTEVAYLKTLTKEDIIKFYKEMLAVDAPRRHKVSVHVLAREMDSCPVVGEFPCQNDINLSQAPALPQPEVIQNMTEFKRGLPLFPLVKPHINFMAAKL
# HEK293 = assay: membrane integrity loss in HEK cells – cell-based, fluorescence, cytotoxicity control for IDE activator project, dose response (AID 588440); assay type: functional; conditions: Homo sapiens;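 also: cytotoxicity by LDH release measuring loss of membrane integrity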
# Genome polyprotein = Genome polyprotein (dengue virus type 2, UniProt P29990); assay: flavivirus cap methylation enzyme inhibition – biochemical, confirmation dose response, primary screen (AID 588689); assay type: functional
# Beta-galactosidase = Beta-galactosidase (Escherichia coli, UniProt Q8VNN2); assay: detection-enzyme interference by beta-gal modulators – biochemical, E. coli enzyme, set 3, artefact control for CCR6 antagonist project, dose response (AID 504712); assay type: functional
# Caspase-3 = target: T2, Caspase-3 (Homo sapiens, UniProt P42574); assay type: functional;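 also: Dose-response selectivity test against caspase-3 for candidate inhibitors of sentrin-specific proteases (SENPs)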
# T2 sequence (P42574 whole entry): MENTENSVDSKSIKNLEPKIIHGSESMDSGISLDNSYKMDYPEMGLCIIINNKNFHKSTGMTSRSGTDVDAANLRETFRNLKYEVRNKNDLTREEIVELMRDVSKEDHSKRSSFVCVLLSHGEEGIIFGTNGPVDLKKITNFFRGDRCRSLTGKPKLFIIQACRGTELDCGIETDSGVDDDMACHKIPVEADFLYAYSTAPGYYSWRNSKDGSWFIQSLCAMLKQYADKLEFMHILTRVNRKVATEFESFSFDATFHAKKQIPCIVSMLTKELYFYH
# [13] = target: T3, Sentrin-specific protease 8 (Homo sapiens, UniProt Q96LD8); assay type: functional
# T3 sequence (Q96LD8 whole entry): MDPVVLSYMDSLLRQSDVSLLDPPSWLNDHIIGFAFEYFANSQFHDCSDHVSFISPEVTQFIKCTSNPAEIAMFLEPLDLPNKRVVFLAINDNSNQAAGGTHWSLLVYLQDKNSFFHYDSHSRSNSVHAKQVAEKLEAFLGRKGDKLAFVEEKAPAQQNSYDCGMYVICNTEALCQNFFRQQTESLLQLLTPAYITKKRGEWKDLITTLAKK
# [14] = target: T3, Sentrin-specific protease 8; assay type: functional; remark: listed apart in the source
# Glycogen synthase kinase-3 beta, sequence (P49841 whole entry): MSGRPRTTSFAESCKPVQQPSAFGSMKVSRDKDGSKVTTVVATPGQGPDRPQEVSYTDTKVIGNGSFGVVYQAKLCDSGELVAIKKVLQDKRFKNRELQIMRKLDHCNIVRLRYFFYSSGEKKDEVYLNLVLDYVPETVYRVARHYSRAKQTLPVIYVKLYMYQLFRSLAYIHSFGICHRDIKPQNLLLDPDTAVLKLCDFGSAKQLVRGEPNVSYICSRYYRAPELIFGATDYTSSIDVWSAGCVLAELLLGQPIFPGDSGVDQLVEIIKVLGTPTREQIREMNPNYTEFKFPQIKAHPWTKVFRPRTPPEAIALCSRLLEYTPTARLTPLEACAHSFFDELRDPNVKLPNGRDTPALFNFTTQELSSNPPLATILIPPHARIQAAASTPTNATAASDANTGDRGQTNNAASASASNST
smiles,measurement,setting,value
O=C(Cc1cccs1)Nc1nc2ccccc2s1,Ki,[1],0.251 µM (active)
same,Ki,[2],0.501 µM (active)
same,Ki,[3],0.501 µM (active)
same,Ki,[4],3.16 µM (active)
same,Ki,[5],2 µM (active)
same,Ki,[6],2.51 µM (active)
same,Ki,[7],3.16 µM (active)
same,Ki,[8],1 µM (active)
same,Ki,[9],3.16 µM (active)
same,Ki,[10],1.58 µM (active)
same,Ki,[11],3.16 µM (active)
same,Ki,[12],> 5.01 µM (inactive)
O=S(=O)(O)c1cccc2c(N=Nc3ccc(O)c4ncccc34)cccc12,EC50,Insulin-degrading enzyme,17.3 µM (inactive)
same,IC50,HEK293,> 89.3 µM (inactive)
same,IC50,Genome polyprotein,34.8 µM (active)
same,IC50,Beta-galactosidase,46.3 µM (inactive)
O=C(NNc1cc(N2CCCC2)nc(N2CCCC2)n1)c1ccc([N+](=O)[O-])cc1,IC50,Caspase-3,> 100 µM (inactive)
same,IC50,[13],2.12 µM (active)
same,IC50,[14],0.732 µM (active)
